The text below walks through data of publication PMC6706640, “Systematic mapping of protein‐metabolite interactions in central metabolism of Escherichia coli” (Molecular Systems Biology, 2019).

The target in test [1] is T1, 6-phosphofructokinase I (PfkA) (Escherichia coli, UniProt P0A796).
T1 construct: full-length His-tagged protein from ASKA library clone (E. coli K-12 ORF collection)
T1 sequence (P0A796 1-320): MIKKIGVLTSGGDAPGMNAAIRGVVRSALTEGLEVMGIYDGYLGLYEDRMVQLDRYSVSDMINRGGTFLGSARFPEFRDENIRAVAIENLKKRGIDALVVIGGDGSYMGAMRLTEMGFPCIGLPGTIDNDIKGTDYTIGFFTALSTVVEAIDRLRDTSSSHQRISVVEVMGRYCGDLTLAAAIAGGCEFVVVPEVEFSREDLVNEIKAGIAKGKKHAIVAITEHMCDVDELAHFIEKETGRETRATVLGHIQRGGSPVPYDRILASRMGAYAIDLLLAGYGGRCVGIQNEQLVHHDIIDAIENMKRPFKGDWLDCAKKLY
Nature of the test: ligand-detected T1rho 1H NMR. It is filed as binding. The conditions noted are these: 15 uM monomer, 200 uM metabolite in mix, pH 7.5, 298 K, 5 mM MgCl2.

Test [2] concerns the target T2, NADP+-dependent glucose-6-phosphate dehydrogenase (Zwf) (Escherichia coli, UniProt P0AC53).
T2 construct: full-length His-tagged protein from ASKA library clone (E. coli K-12 ORF collection)
Nature of the test: ligand-detected T1rho 1H NMR; inhibition checked by NADPH formation assay. It counts as biochemical. The following applies: NMR: 15 uM monomer, 200 uM metabolite in mix, pH 7.5, 298 K, 5 mM MgCl2; activity: 2 and 10 mM GTP, 2 mM G6P, 1 mM NADP+, 30 C.

For test [3], the target named is T3, enolase (Eno) (Escherichia coli, UniProt P0A6P9).
T3 construct: full-length His-tagged protein from ASKA library clone (E. coli K-12 ORF collection)
T3 sequence (P0A6P9 2-432): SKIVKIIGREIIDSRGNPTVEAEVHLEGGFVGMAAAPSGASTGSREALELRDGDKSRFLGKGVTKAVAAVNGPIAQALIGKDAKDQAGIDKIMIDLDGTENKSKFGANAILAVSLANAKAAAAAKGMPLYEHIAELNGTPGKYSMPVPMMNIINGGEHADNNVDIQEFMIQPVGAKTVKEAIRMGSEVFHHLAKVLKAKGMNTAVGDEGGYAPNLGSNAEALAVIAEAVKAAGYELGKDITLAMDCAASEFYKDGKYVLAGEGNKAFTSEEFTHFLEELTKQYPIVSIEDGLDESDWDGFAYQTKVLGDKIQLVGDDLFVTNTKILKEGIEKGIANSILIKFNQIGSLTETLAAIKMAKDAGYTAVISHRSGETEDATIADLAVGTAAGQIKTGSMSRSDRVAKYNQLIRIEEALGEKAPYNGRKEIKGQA
Kind of test: ligand-detected T1rho 1H NMR. It is filed as binding. The conditions noted are these: 15 uM monomer, 200 uM metabolite in mix, pH 7.5, 298 K, 5 mM MgCl2.

T2 sequence (P0AC53 whole entry): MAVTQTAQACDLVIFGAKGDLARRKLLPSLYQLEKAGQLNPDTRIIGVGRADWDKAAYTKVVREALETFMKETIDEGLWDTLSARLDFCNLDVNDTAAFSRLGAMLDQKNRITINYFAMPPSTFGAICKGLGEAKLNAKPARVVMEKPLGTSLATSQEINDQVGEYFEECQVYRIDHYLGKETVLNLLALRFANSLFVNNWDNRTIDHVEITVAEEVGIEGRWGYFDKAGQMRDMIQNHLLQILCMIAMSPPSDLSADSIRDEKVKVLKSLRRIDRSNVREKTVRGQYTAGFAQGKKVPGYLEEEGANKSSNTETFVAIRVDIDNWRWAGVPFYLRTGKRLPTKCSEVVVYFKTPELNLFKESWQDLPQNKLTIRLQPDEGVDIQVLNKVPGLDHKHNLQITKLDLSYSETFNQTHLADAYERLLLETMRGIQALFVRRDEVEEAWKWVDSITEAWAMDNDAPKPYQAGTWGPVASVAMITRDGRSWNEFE

Turning to `Nc1ncnc2c1ncn2[C@@H]1O[C@H](COP(=O)(O)O)[C@@H](O)[C@H]1O` [AMP], in test [1], the ΔRF entry was “two of which were detected in both datasets (Eno–PEP and PfkA–AMP)”.

As to `Nc1nc2c(ncn2[C@@H]2O[C@H](COP(=O)(O)OP(=O)(O)OP(=O)(O)O)[C@@H](O)[C@H]2O)c(=O)[nH]1` [GTP], the ΔRF entry in test [2] was “ATP and GTP indeed inhibited Zwf even at physiological concentrations of MgCl2”.

In the case of `C=C(OP(=O)(O)O)C(=O)O` [phosphoenolpyruvate], the ΔRF result in test [3] is “two of which were detected in both datasets (Eno–PEP and PfkA–AMP)”.
